Measurements from patent US8710246B2, “Substituted thiophene pentamers” (Biochromix Newco AB, priority 2008, dated 2014).
Entries after “also recorded” stand apart in the source; their conditions may differ.

Experiments:
Aβ deposits = experiment: Long term in vivo effects on amyloid plaques in transgenic mice, cranial window, multiphoton spectroscopy; settings: tail vein injection, 10 mg/kg
Description: This long lasting binding to the plaques is advantageous for a long term therapeutic effect of the inventive compounds.

hAPPSL transgenic mice = experiment: 14 days treatment, general observations, tolerance to compound (toxicity); assay type: in vivo; settings: for animals that died premature: ip 14 days
Protocol: Vehicle: Phosphate Buffered Saline (PBS; 6.7 mM PO4, 155 mM NaCl, pH=7.3-7.5) (BioWhittaker PBS from Lonza).
T:I: p-FTAA, Mw=617 g/mol, diluted in vehicle from stock solution in deionized water (10 mg/ml).
Tg hAPPSL: Transgenic hAPPSL mice over-expressing hAPP(751) under the control of the murine Thy-1 promoter with a C57BL/6xDBA background.
(§1) Starting at 4 months of age, female hAPPSL mice were treated with vehicle only or p-FTAA in 3 dosages for 14 days. 40 hAPP Tg mice plus 4 reserves allocated to 4 different treatment groups were treated with either vehicle only (control) or with p-FTAA in dosages of 0.1 mg/kg/day, 1 mg/kg/day, or 10 mg/kg/day. Vehicle and T.I.s were administered twice daily intra peritoneal (ip) for 14 days.
In total 44 animals allocated to 4 treatment groups were included in the study. 4 animals died premature due to unknown reason: 1 animal each of the 1 mg/kg and 10 mg/kg T.I. groups and 2 animals from the control group.

[1] = 14 days treatment, biodistribution by HPLC-MS/MS; assay type: in vivo, mice
Protocol: as §1
The biodistribution of p-FTAA in the mice was assessed by determining the parent compound in the right brain hemisphere (without cerebellum), liver, kidney, and plasma of the treated animals. p-FTAA was determined in all the matrices by different bioanalytical methods involving HPLC-MS/MS. Each method was characterized in terms of specificity, linearity, accuracy and precision in order to give reliable results.
Tissue Sampling: After the last treatment, animals were sacrificed. Each treatment group was divided in 3 sampling points resulting in 3-4 animals per sampling point per group (time points below refer to the time point of CSF sampling):
1) Immediately before last dosing on day 14 (predose)
2) 0.5 hours after last dosing on day 14
3) 3 hours after last dosing on day 14
From each animal, CSF, blood, brains, liver, and kidney were collected. Therefore, mice were sedated by standard inhalation anesthesia (Isofluran, Baxter)

Aβ peptide 1-42 = biological target: T1, Aβ peptide 1-42 (Homo sapiens, UniProt P05067); experiment: In vitro fibrillation of Aβ peptide 1-42 followed by TEM; assay type: biochemical; settings: for fibrillation morphology by TEM: 100 μM compound, 20 μM Aβ 1-42, 37° C.
T1 construct: Aβ peptide 1-42 was dissolved in hexafluoroisopropanol
Protocol: Aβ peptide 1-42 was dissolved in hexafluoroisopropanol to a concentration of 1 mg/mL and further diluted to 20 μM in Tris-HCl 5 mM, 75 mM NaCl. The inventive compounds F and G were added in concentrations from 10 to 100 μM and the samples, including references without the inventive compounds, were incubated at 37° C. to initiate fibrillation. After Oh, 20 h and 66 h aliquots were withdrawn, deposited on formvar-carbon coated TEM grids and negatively stained using uranylacetate. A Phillips CM200 run at 200 kV was used to study the progress of fibrillation in the different samples. […] (at Oh). […] These aggregates were covering most of the TEM grid and no smaller fibril or oligomer like structures could be seen. After 66 h of incubation no major change in morphology compared to the 20 h samples could be seen, sheets with separate visible fibrils were found at high density on the grid, of a typical morphology illustrated in FIG. 3.

T1 sequence (P05067 672-713 limits assumed): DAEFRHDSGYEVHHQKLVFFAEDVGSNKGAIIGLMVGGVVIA

O=C(O)Cc1cc(-c2ccc(C(=O)O)s2)sc1-c1ccc(-c2sc(-c3ccc(C(=O)O)s3)cc2CC(=O)O)s1 [Compound F]
binding to Aβ deposits in living mouse brain one week after injection (Aβ deposits; one week after injection): binding of the inventive compounds to AP deposits could still be observed; also recorded: bound to Aβ deposits in living mouse brain one week after injection
crossing of the blood brain barrier after intravenous injection (Aβ deposits; transgenic mice with AD-like pathology): readily cross the blood brain barrier
animals that died premature (hAPPSL transgenic mice; 1 mg/kg group): 1 animal
animals that died premature (hAPPSL transgenic mice; 10 mg/kg group): 1 animal
attribution of premature deaths to the compound (hAPPSL transgenic mice; 0.1, 1, 10 mg/kg/day ip twice daily for 14 days, 4 months old female hAPPSL mice): cannot be attributed to p-FTAA
systemic exposure ([1]; 0.1, 1, 10 mg/kg/day ip for 14 days, plasma): exposed systemically to p-FTAA at all dose levels
crossing of the blood-brain barrier (brain levels) ([1]; after ip administration, 14 days): crossed the blood-brain barrier
elimination route suggested by tissue levels ([1]; ip, 14 days): urinary excretion is the main elimination route
exposure in the liver and in the kidney ([1]; ip, 14 days): Significant exposure
levels in kidney compared to liver ([1]; ip, 14 days): higher in the kidney compared to the liver
fibrillation morphology by TEM (Aβ peptide 1-42; 20 h): no dense aggregates resembling those in the reference sample
fibrillation morphology by TEM (Aβ peptide 1-42; 66 h): no separate fibrils could be found; also recorded: dense aggregates where no fibrils can be seen
effect on the fibrillation of Aβ peptide 1-42 (Aβ peptide 1-42; overall conclusion, 20 h and 66 h): major effect
